# US20160101148A1, “TREATMENT AND PREVENTION OF BACTERIAL SKIN INFECTIONS USING ORITAVANCIN” (priority 2013, published 2016)
# Legend:
# [1] = SOLO I and SOLO II combined, safety; type: in vivo, human
# [2] = test system: S. aureus strains (14 mecC MRSA, 2 mecA MRSA, ATCC 29213 MSSA); test: In vitro time-kill assays at free peak and free trough concentrations; type: cell-based, Staphylococcus aureus
# Procedure: Viable cell count was determined by serial dilution plating, including the use of 25 g/L charcoal suspension to limit antibiotic carryover. […] Time-kill assays were repeated at least twice independently; results presented are from a representative experiment.
# Doubling dilution concentrations of comparator agents were likewise chosen to approximate their fCmax and fCmin levels in plasma when administered at approved dosages for complicated skin and skin structure infections, using pharmacokinetic data and protein binding values from their respective package inserts (DAP [Cubicin®]; LZD [Zyvox®]; VAN [Vancocin®]; Table 3).
# [3] = Predicted free peak and free trough levels in plasma; type: in vivo; settings: non-protein bound drug, representative human dose: oritavancin 1200 mg, vancomycin 1000 mg, daptomycin 4 mg/kg, linezolid 500 mg
# Procedure: ORI concentrations were chosen to approximate free peak (fCmax; defined as the peak concentration of non-protein bound drug) and free trough (fCmin; defined for ORI as the concentration of non-protein bound drug at 24 h) levels in plasma following administration of a 1200 mg dose (Belley et al., 2013 Table 10). ORI protein binding is estimated at approximately 85% in serum from nonclinical species and humans (Arhin et al., 2010). Doubling dilution concentrations of comparator agents were likewise chosen to approximate their fCmax and fCmin levels in plasma when administered at approved dosages for complicated skin and skin structure infections, using pharmacokinetic data and protein binding values from their respective package inserts (DAP [Cubicin®]; LZD [Zyvox®]; VAN [Vancocin®]; Table 3).
# [4] = SOLO I Phase 3 trial, safety assessments (safety population); type: in vivo, human
# Source text: The study design was consistent with current guidelines from FDA (U.S. Food and Drug Administration. Guidance for Industry Acute Bacterial Skin and Skin Structure Infections: Developing Drugs for Treatment (DRAFT GUIDANCE). Available via Internet at the URL containing: fda.gov/downloads/Drugs/GuidanceComplianceRegulatoryInformation/Guidances/ucm071185.p df) and EMA (European Medicines Agency Committee for Medicinal Products for Human Use. Addendum to the note for guidance on evaluation of medicinal products indicated for treatment of bacterial infections (CHMP/EWP/558/95 REV 2) to address indication-specific clinical data (draft). 2012. Available via Internet at the URL containing: ema.europa.eu/docs/en_GB/document_library/Scientific_guideline/2012/07/WC500129443.pdf) and Foundation for National Institutes of Health guidance was considered for analyses (Talbot G H etl. Clin Infect Dis. 2012. 55(8):1114-1121). The protocol was approved by institutional review boards/ethics committees and all patients provided written informed consent. The study was conducted from January 2011 through October 2012 at 46 study centers in Mexico, Spain, Germany, Romania, Russia, Ukraine, Israel, India, and the United States. […] Aztreonam and metronidazole were permitted for gram-negative and anaerobic cover, respectively.
# Safety assessments (Safety Population) included vital signs, electrocardiogram (ECG), clinical chemistry and hematology parameters, reporting of adverse events (AEs) and serious adverse events (SAEs). Treatment-emergent adverse events (TEAEs) were defined as AEs with onset or worsening severity at or after the first dose of study drug through the Safety Follow-up Visit (Day 60+7 days).
# For safety assessments, descriptive analyses were performed in the safety population for all safety parameters by treatment group.
# The intent-to-treat (ITT) population included all patients randomized into the study. The modified intent-to-treat (mITT) was the primary population for all the efficacy analyses and included all randomized patients who received any study drug. The clinically evaluable (CE) population consisted of all mITT patients who met the inclusion/exclusion criteria, received the full-course of randomized study treatment (for a minimum of 7 days), and had investigator assessment for clinical cure at PTE. The CE population was used to confirm the efficacy analyses. The microbiologically ITT (MicroITT) population consisted of all mITT patients with baseline gram-positive pathogen(s) known to cause ABSSSI and it was used for the secondary efficacy analyses. The microbiologically evaluable (MicroE) population was used to confirm the secondary efficacy analyses and consisted of all patients who were in both the MicroITT and CE populations. The safety population was the primary population for all the safety analyses, and consisted of all patients who were dosed with study drug, irrespective of randomization. Treatment classification was based on the actual treatment received.
compound,measurement,setting,value
"CN[C@H](CC(C)C)C(=O)N[C@H]1C(=O)N[C@@H](CC(N)=O)C(=O)N[C@H]2C(=O)N[C@H]3C(=O)N[C@H](C(=O)N[C@H](C(=O)O)c4cc(O)cc(O)c4-c4cc3ccc4O)[C@H](O)c3ccc(c(Cl)c3)Oc3cc2cc(c3O[C@@H]2O[C@H](CO)[C@@H](O)[C@H](O)[C@H]2O[C@H]2C[C@](C)(N)[C@H](O)[C@H](C)O2)Oc2ccc(cc2Cl)[C@H]1O [Vancomycin, vancomycin]",Patients with adverse events leading to study drug discontinuation,[1],4.2%
same,Treatment emergent adverse events considered by investigators as related to study drug,[1]; p=0.002,28.4%
same,Patients reported to experience at least one adverse event,[1]; safety population,56.9%
same,Time to cidality (≧3 log decrease),"[2]; 57147 (mecC), vancomycin ƒCmax 16 mg/L",6-24 h
same,Time to cidality (≧3 log decrease),"[2]; 57147 (mecC), vancomycin ƒCmin 4 mg/L",6-24 h
same,Time to cidality (≧3 log decrease),"[2]; 70611 (mecC), vancomycin ƒCmax 16 mg/L",6-24 h
same,Time to cidality (≧3 log decrease),"[2]; 70611 (mecC), vancomycin ƒCmin 4 mg/L",6-24 h
same,Time to cidality (≧3 log decrease),"[2]; 73348 (mecC), vancomycin ƒCmax 16 mg/L",6-24 h
same,Time to cidality (≧3 log decrease),"[2]; 73348 (mecC), vancomycin ƒCmin 4 mg/L",6-24 h
same,Time to cidality (≧3 log decrease),"[2]; 73415 (mecC), vancomycin ƒCmax 16 mg/L",6-24 h
same,Time to cidality (≧3 log decrease),"[2]; 73415 (mecC), vancomycin ƒCmin 4 mg/L",6-24 h
same,Time to cidality (≧3 log decrease),"[2]; 73617 (mecC), vancomycin ƒCmax 16 mg/L",6-24 h
same,Time to cidality (≧3 log decrease),"[2]; 73617 (mecC), vancomycin ƒCmin 4 mg/L",6-24 h
same,Time to cidality (≧3 log decrease),"[2]; 73829 (mecC), vancomycin ƒCmax 16 mg/L",6-24 h
same,Time to cidality (≧3 log decrease),"[2]; 73829 (mecC), vancomycin ƒCmin 4 mg/L",6-24 h
same,Time to cidality (≧3 log decrease),"[2]; 75814 (mecC), vancomycin ƒCmax 16 mg/L",6-24 h
same,Time to cidality (≧3 log decrease),"[2]; 75814 (mecC), vancomycin ƒCmin 4 mg/L",6-24 h
same,Time to cidality (≧3 log decrease),"[2]; 76918 (mecC), vancomycin ƒCmax 16 mg/L",6-24 h
same,Time to cidality (≧3 log decrease),"[2]; 76918 (mecC), vancomycin ƒCmin 4 mg/L",6-24 h
same,Time to cidality (≧3 log decrease),"[2]; 77431 (mecC), vancomycin ƒCmax 16 mg/L",6-24 h
same,Time to cidality (≧3 log decrease),"[2]; 77431 (mecC), vancomycin ƒCmin 4 mg/L",6-24 h
same,Time to cidality (≧3 log decrease),"[2]; 77601 (mecC), vancomycin ƒCmax 16 mg/L",6-24 h
same,Time to cidality (≧3 log decrease),"[2]; 77601 (mecC), vancomycin ƒCmin 4 mg/L",6-24 h
same,Time to cidality (≧3 log decrease),"[2]; 77950 (mecC), vancomycin ƒCmax 16 mg/L",6-24 h
same,Time to cidality (≧3 log decrease),"[2]; 77950 (mecC), vancomycin ƒCmin 4 mg/L",6-24 h
same,Time to cidality (≧3 log decrease),"[2]; 77964 (mecC), vancomycin ƒCmax 16 mg/L",6-24 h
same,Time to cidality (≧3 log decrease),"[2]; 77964 (mecC), vancomycin ƒCmin 4 mg/L",6-24 h
same,Time to cidality (≧3 log decrease),"[2]; 78085 (mecC), vancomycin ƒCmax 16 mg/L",6-24 h
same,Time to cidality (≧3 log decrease),"[2]; 78085 (mecC), vancomycin ƒCmin 4 mg/L",6-24 h
same,Time to cidality (≧3 log decrease),"[2]; 78651 (mecC), vancomycin ƒCmax 16 mg/L",6-24 h
same,Time to cidality (≧3 log decrease),"[2]; 78651 (mecC), vancomycin ƒCmin 4 mg/L",6-24 h
same,Time to cidality (≧3 log decrease),"[2]; ATCC 29213 (MSSA), vancomycin ƒCmax 16 mg/L",6-24 h
same,Time to cidality (≧3 log decrease),"[2]; ATCC 29213 (MSSA), vancomycin ƒCmin 4 mg/L",6-24 h
same,Time to cidality (≧3 log decrease),"[2]; ATCC 33591 (mecA), vancomycin ƒCmax 16 mg/L",6-24 h
same,Time to cidality (≧3 log decrease),"[2]; ATCC 33591 (mecA), vancomycin ƒCmin 4 mg/L",6-24 h
same,Time to cidality (≧3 log decrease),"[2]; ATCC 43300 (mecA), vancomycin ƒCmax 16 mg/L",6-24 h
same,Time to cidality (≧3 log decrease),"[2]; ATCC 43300 (mecA), vancomycin ƒCmin 4 mg/L",6-24 h
same,Time to achieve 3 log kill,"[2]; all tested strains, both fCmin and fCmax",6 to 24 hours
same,Doubling Dilution Concentration Representing Predicted fCmax,[3],16 mg/L
same,Cellulitis SAEs considered new events,[4],4
same,Discontinuation of study drug due to cellulitis,[4],3 patients
same,Discontinuation of study drug due to drug hypersensitivity,[4],2 patients
same,Discontinuation of study drug due to hypersensitivity,[4],5 patients
same,Discontinuation of study drug due to pruritus,[4],2 patients
same,Discontinuation of study drug due to rash,[4],2 patients
same,Discontinuation of study drug due to sepsis,[4],2 patients
same,Discontinuation of study drug due to skin bacterial infection,[4],2 patients
same,Frequency of SAEs,[4],7.3%
same,Histamine-like reactions (Red Man syndrome),[4],2 patients
same,Proportion of patients experiencing a TEAE that led to discontinuation of the study drug,[4],5.8%
same,Skin and subcutaneous tissue adverse events,[4],19.1%
same,Patients who died during the study,[4]; all determined unrelated to study drug,two
same,Infusion site reaction AEs,[4]; post-hoc analysis,7.1%
same,Pruritus AEs,[4]; post-hoc analysis,9.1%
same,Incidence of diarrhea,[4]; safety population,3.5%
same,Incidence of headache,[4]; safety population,7.9%
same,Incidence of nausea,[4]; safety population,8.9%
same,Incidence of vomiting,[4]; safety population,3.7%
